Values quoted from earlier work in patent publication US6916479B2, “Compositions containing an antifungal and a phospholipid” (Janssen Pharmaceutica N.V., priority 1997, dated 2005).

Settings: prior art medicated shampoo

SMILES	number of patients not responding to particular medicated shampoo
CC(=O)N1CCN(c2ccc(OCC3COC(Cn4ccnc4)(c4ccc(Cl)cc4Cl)O3)cc2)CC1 (centres unmarked) [ketoconazole]	up to 30%
S=[Se]=S [selenium sulfide]	up to 40%
